This note sets out measurements from ChEMBL document CHEMBL1201862, “PubChem BioAssay data set” (2004).

Values joined by “and” are separate entries in the source; they are usually repeats but may differ in a detail not shown here. Identical values can stand only once.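 Protocol summary: plate cells (96-well), add compound at 5 concentrations, incubate 48 h, interpolate endpoints linearly. GI50: concentration for 50% inhibition of growth.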 Active and inactive are the calls of the source. Cut-off read from the data, not from the text of the source: active = GI50 up to about 1.1 µM and inactive = higher.

Test systems include CCRF-CEM; COLO 205; HCC 2998; HCT-15; HOP-62; LXFL 529; NCI-H460; OVCAR-4; RXF 393; SF-268; SF-295; SK-MEL-5; SNB-75; SR; SW-620; U-251; UACC-62; MCF7; MDA-MB-231; MDA-N.
Common to all, as to assay: NCI tumour cell line growth inhibition, 48 h

Regarding `COc1ccc(NC(=O)c2cc(OC)cc(OC)c2)cc1`, the GI50 with CCRF-CEM was 27.9 µM (inactive); in the test with COLO 205, 7.1 µM (inactive); in the test on HCC 2998, 23 µM (inactive); in the test on HCT-15, 6.93 µM; in the test with HOP-62 it was > 36.5 µM (inactive); with LXFL 529 it was 40.5 µM (inactive). In addition, the GI50 is 9.89 µM (inactive) in the test on NCI-H460; > 100 µM (inactive) with OVCAR-4; 17.8 µM (inactive) in the test on RXF 393; 36.7 µM (inactive) in the test on SF-268; 17.8 µM (inactive) with SF-295; 9.38 µM (inactive) with SK-MEL-5. The GI50 with SNB-75 was 27.9 µM (inactive); in the test with SR, 11.6 µM (inactive); in the test on SW-620, 7.01 µM (inactive); with U-251, 17.5 µM (inactive); in the test with UACC-62 it was 11.3 µM (inactive).

`COc1ccc(/N=N/c2c(-c3ccccc3)nn(C(=O)CC(=O)Nc3ccccc3Cl)c2-c2ccccc2)cc1`: the GI50 in the test on CCRF-CEM was 30.8 µM (inactive); in the test on COLO 205, > 100 µM (inactive); in the test on HCC 2998, > 100 µM (inactive); in the test on HCT-15, 58.9 µM; in the test on HOP-62, > 100 µM (inactive); in the test with LXFL 529, > 100 µM (inactive). Also, the GI50 with NCI-H460 was > 100 µM (inactive); with OVCAR-4 it was 57 µM (inactive); with RXF 393 it was > 100 µM (inactive); with SF-268 it was 82.8 µM (inactive); in the test on SF-295 it was > 100 µM (inactive); in the test with SK-MEL-5 it was > 100 µM (inactive). Also, the GI50 is 6.12 µM (inactive) in the test with SNB-75; 2.82 µM (inactive) in the test with SR; > 100 µM (inactive) in the test on SW-620; > 100 µM (inactive) with U-251; > 100 µM (inactive) in the test with UACC-62.

Turning to `CCC(C)C(=O)O[C@H]1C(=O)O[C@@H]2C[C@H]3C(C)=CC(=O)[C@@H](O)[C@]3(C)[C@H]3[C@@H](O)[C@H](O)[C@@]4(C)OC[C@]32[C@@H]14` (stereo partly specified), the GI50 in the test on CCRF-CEM is 0.0143 µM (active); in the test on COLO 205 it was 0.0229 µM (active); in the test with HCC 2998, < 0.0147 µM (active); with HCT-15 it was less than 0.0204 µM; in the test on HOP-62, < 0.0221 µM (active); in the test with LXFL 529, 0.0103 µM (active). In addition, the GI50 with MCF7 is < 0.01 µM (active); with MDA-MB-231, < 0.01 µM (active); in the test with MDA-N, < 0.01 µM (active); in the test on NCI-H460, < 0.0135 µM (active); in the test on OVCAR-4, < 0.01 µM (active); in the test on RXF 393, 0.015 µM (active). Further, the GI50 in the test with SF-268 was < 0.0164 µM (active); in the test on SF-295, < 0.0205 µM (active); in the test with SK-MEL-5 it was < 0.0169 µM (active); in the test on SNB-75 it was < 0.0167 µM (active); in the test with SR it was 0.01 µM (active); in the test with SW-620, < 0.0162 µM (active). Besides, the GI50 in the test on U-251 is < 0.0171 µM (active); in the test with UACC-62, < 0.019 µM (active).

With `Cc1cc(C(=C2C=CC(=N)C=C2)c2ccc(N)cc2)ccc1N` [FUCHSIN, BASIC], the GI50 is 4.19 µM (inactive) with CCRF-CEM; 1.01 µM (active) in the test on COLO 205; 3.23 µM (inactive) in the test on HCC 2998; 12 µM in the test on HCT-15; 0.724 µM (active) with HOP-62; 1.03 µM (active) in the test on LXFL 529. The GI50 was 3.13 µM (inactive) in the test with MCF7; 6.3 µM (inactive) with MDA-MB-231; 4.72 µM (inactive) with MDA-N; 2.52 µM (inactive) with NCI-H460; 8.43 µM (inactive) with OVCAR-4; 7.16 µM (inactive) with RXF 393. The GI50 in the test on SF-268 is 0.556 µM (active); in the test with SF-295, 0.564 µM (active); with SK-MEL-5 it was 1.46 µM (inactive); in the test on SR, 13.3 µM (inactive); in the test on SW-620, 3.67 µM (inactive); with UACC-62 it was 4.45 µM (inactive).

As to `COc1ccc2nc(NC(=O)C(=O)CC(=O)c3ccc(Cl)cc3)sc2c1`, the GI50 in the test with CCRF-CEM was > 100 µM (inactive); in the test on COLO 205 it was > 100 µM (inactive); in the test on HCC 2998, 56.9 µM (inactive); in the test with HCT-15, more than 100 µM; with HOP-62, > 100 µM (inactive); in the test on LXFL 529, > 100 µM (inactive). Also, the GI50 is > 100 µM (inactive) in the test on NCI-H460; 20.9 µM (inactive) in the test on OVCAR-4; 31.3 µM (inactive) in the test on RXF 393; 85.3 µM (inactive) in the test with SF-268; 56.9 µM (inactive) with SF-295; > 100 µM (inactive) in the test with SK-MEL-5. Moreover, the GI50 with SNB-75 is 29.4 µM (inactive); with SR, > 100 µM (inactive); with SW-620 it was > 100 µM (inactive); in the test on U-251, 48.4 µM (inactive); with UACC-62 it was 68.7 µM (inactive).

Consider `O=C(NC(=O)c1ccccc1[N+](=O)[O-])Nc1ccc(Oc2ncc(Cl)cn2)c(C(F)(F)F)c1`, for which the GI50 in the test with CCRF-CEM was 0.0154 µM (active); in the test on COLO 205 it was 0.0184 µM (active); in the test on HCC 2998 it was 0.0209 µM (active); with HCT-15, less than 0.0126 µM; in the test with HOP-62, 0.0181 µM (active); in the test on LXFL 529 it was < 0.01 µM (active). In addition, the GI50 is < 0.01 µM (active) in the test with MCF7; 0.0371 µM (active) in the test on MDA-MB-231; < 0.01 µM (active) in the test on MDA-N; < 0.01 µM (active) with NCI-H460; 1.6 µM (inactive) in the test with OVCAR-4; < 0.01 µM (active) in the test with RXF 393. Besides, the GI50 in the test with SF-268 is 0.0733 µM (active); in the test with SF-295, < 0.01 µM (active); in the test on SK-MEL-5, < 0.01 µM (active); in the test on SNB-75, < 0.01 µM (active); in the test with SR it was 0.116 µM (active); with SW-620 it was < 0.01 µM (active). For the same compound, the GI50 in the test on U-251 is < 0.0121 µM (active); with UACC-62 it was < 0.01 µM (active).

For `C=C1C(=O)OC2/C=C(\CO)C(OC(C)=O)CC(O)/C(C)=C/C(OC(=O)C(C)CC)C12` (stereo unspecified), the GI50 in the test with COLO 205 is 14 µM (inactive) and 11.8 µM (inactive); in the test with HCC 2998, 22.4 µM (inactive) and 15.6 µM (inactive); in the test with HCT-15, 38.6 µM and 30.2 µM; with HOP-62, > 100 µM (inactive); in the test with LXFL 529 it was 13.9 µM (inactive); in the test with MCF7, 12.9 µM (inactive). Moreover, the GI50 in the test with MDA-MB-231 was 17.3 µM (inactive); in the test on MDA-N it was 18.3 µM (inactive); in the test on NCI-H460 it was 23.3 µM (inactive) and 38.6 µM (inactive); with OVCAR-4, 33.5 µM (inactive) and 17.3 µM (inactive); in the test on RXF 393, 23.1 µM (inactive) and 24.4 µM (inactive); in the test on SF-268 it was 28.9 µM (inactive) and 19.7 µM (inactive). In addition, the GI50 in the test with SF-295 was > 100 µM (inactive); with SK-MEL-5, 18.8 µM (inactive) and 17 µM (inactive); in the test with SNB-75, 24.3 µM (inactive); in the test on SR it was 8 µM (inactive); in the test on SW-620, 11.8 µM (inactive) and 21.5 µM (inactive); with U-251, 30.1 µM (inactive) and 26.9 µM (inactive). Moreover, the GI50 in the test with UACC-62 is 19.4 µM (inactive) and 17.5 µM (inactive).

Consider `COC(=O)C(C(=O)C(=O)NC1=C(Cl)C(=O)c2ccccc2C1=O)c1csc(-n2nc(-c3ccccc3)cc2-c2ccccc2)n1` (stereo unspecified), for which the GI50 in the test on CCRF-CEM was 31 µM (inactive); in the test with COLO 205, > 100 µM (inactive); with HCC 2998, > 100 µM (inactive); in the test with HCT-15, more than 100 µM; with HOP-62, > 100 µM (inactive); with LXFL 529, > 100 µM (inactive). The GI50 in the test on NCI-H460 is > 100 µM (inactive); with OVCAR-4 it was > 100 µM (inactive); with RXF 393, 34.7 µM (inactive); in the test with SF-268 it was 24.3 µM (inactive); with SF-295 it was > 100 µM (inactive); with SNB-75, 1.65 µM (inactive). The GI50 was > 100 µM (inactive) with SR, > 100 µM (inactive) in the test on SW-620, > 100 µM (inactive) in the test with U-251 and 44.1 µM (inactive) in the test with UACC-62.

`COC(=O)C(=O)OC1(C(C)=O)CC2(c3ccccc3)OC1(c1ccccc1)c1ccccc12` (stereo unspecified): the GI50 was 33.6 µM (inactive) with CCRF-CEM; 15.8 µM (inactive) with COLO 205; 16.7 µM (inactive) in the test on HCC 2998; 16.9 µM in the test on HCT-15; 18.4 µM (inactive) with HOP-62; 19.8 µM (inactive) in the test with LXFL 529. The GI50 in the test with NCI-H460 was 18.4 µM (inactive); in the test with OVCAR-4 it was 20.2 µM (inactive); in the test on RXF 393 it was 15.4 µM (inactive); in the test with SF-268, 20 µM (inactive); in the test with SF-295, 14.5 µM (inactive); in the test on SK-MEL-5, 15 µM (inactive). For the same compound, the GI50 in the test with SNB-75 was 32.7 µM (inactive); in the test on SR, 28.1 µM (inactive); in the test with SW-620, 16.4 µM (inactive); in the test on U-251, 16.4 µM (inactive); with UACC-62 it was 14.9 µM (inactive).
